For one series, the system named is Treponema hyodysenteriae. As to the kind of experiment: In vitro activity (MIC) against Treponema hyodysenteriae, agar dilution. The format is cell-based. As to conditions: for MIC: Brachyspira hyodysenteriae, read-out: MIC (minimum inhibitory concentration); for MIC (minimum inhibitory concentration): 72 hours anaerobic, 37° C. How it is done:
The test organisms were grown anaerobically for 96 hours on Trypticase soy agar plate supplemented with 5% sheep blood. Appropriate amounts of physiological saline solution were poured into each agar plate to make a cell-suspension of test organism, which was finally adjusted at the cell density of 10^6 colony forming units (CFU)/ml. Freshly prepared Trypticase soy agar plates supplemented with 5% sheep blood which were containing serial two-fold dilutions of each of the compounds as mentioned below were inoculated with a loopful (about 5 μl) of the above-mentioned cell-suspension. The MIC (minimum inhibitory concentration) values were determined after 72 hours of anaerobical incubation at 37° C. in Gas Pak jars.
For orientation: In agar dilution the substance is mixed into plates at graded concentrations.

For series [1], the system named is Treponema hyodysenteriae S5709. As to the kind of experiment: Protective effect against experimental infection of Treponema hyodysenteriae in mice. The format is in vivo, mice (ddy). As to conditions: 5 mg/kg, oral, once a day on first and second day after challenge, one week after infection. How it is done: 5 week-old mice (ddy, .male.) were used in these experiments. Mice were orally infected with 1.8×10^7 cells of Treponema hyodysenteriae S5709 grown for 96 hours on Trypticase soy agar plate supplemented with 5% sheep blood. On the first and second day after challenge, test compounds were given by oral administration once a day. One week after infection, the efficacy of the antibiotics on mice suffering from dysentery was determined as follows. Cecum contents from infected mice were suspended in 2 ml of saline solution, diluted twenty times with Trypticase soy medium supplemented with 5% sheep blood and cultured for T. hyodysenteriae on agar plate of Trypticase soy medium supplemented with 5% sheep blood at 37° C. for 72 hours in Gas Pak jars. The numbers of T. hyodysenteriae colony appeared on the plates were counted. Mice that gave no colony formations of T. hyodysenteriae were regarded as cured mice.

The subject of series [2] is Treponema hyodysenteriae ATCC31212. Nature of the series: Therapeutic effect on experimentally induced swine dysentery in piglets. The format is in vivo, piglets (Landace×Large White crossbred). As to conditions: solution in water; for (average) days of disappearance of fecal T. h: detection limit 10^2 CFU/g of feces. How it is done:
Seven piglets, LW (Landace×Large White crossbred) male, were used. The initial body weight at the time of inoculation of infective materials ranged from 6.5 to 8.5 kg. Piglets were divided into 4 groups ([…] and 1 group of 1 head) and were maintained in stainless cages (90×90 cm) with raised plastic net floors at 28±2° C. Feed [Milk replacer for piglet] and water were supplied ad libitum except the duration of fasting. Infective materials used were prepared as follows. A total of 300 g of mucous haemorrhagic feces, large intestinal (from caecum through rectum) contents, and mucosa obtained from a clinically affected pig (3 days after onset of swine dysentery), which was previously inoculated into its caecum with pure culture of Treponema hyodysenteriae ATCC31212 (about 3×10^9 colony forming units/head) by surgical operation, were suspended, diluted finally 2.5 times with phosphate-bufferized saline and minced by biotron homogenizer (trademark, made by Biotrona Co., Ltd.).
For the purpose of infection, all piglets were inoculated individually with about 90 g of the infective materials after 22 hours' fasting.
Treatment were done once a day for 2 consecutive days from the 5th day post inoculation.

Series [3] can be described thus: Growth promoting effect in pigs. The format is in vivo, pigs (LWD strain). As to conditions: for Efficiency of feed utilization: 6 weeks, control 2.19; for Average body weight gain at the 6th week after the feeding: control 18.0; for Average final body weight at the 6th week after the starting of the feeding: control 28.0. From the text:
Five sets of 24 pigs (33 days-old, LWD strain) were used. Each 24 pigs were divided into 4 groups, i.e. 3 treatment groups and a control group. Each group consisted of 3 barrows and 3 female pigs. They were fed continuously with the feed described in Table 6.
The above basal ration I +

The nature of series [4]: Growth promoting effect in male broiler chickens. The format is in vivo, male broiler chickens (chunky). As to conditions: for Average body weight gain at one week after the feeding: control 95.3; for Average final body weight at one week after the feeding: control 183.8; for Efficiency of feed utilization: one week, control 2.02. From the text: 8-Days-old male broiler chickens (chunky) were divided into 3 groups i.e. 2 treatment groups and a control group, each group of which consisted of 10 chicks. They were fed continuously with the feed described in Table 8.
The above Basal ration II +

The nature of series [5]: Acute toxicity test in mice. As to conditions: single intravenous dose 20 mg (1 g/kg), five mice, 10 days of observation. Format: in vivo, ddy mice. How it is done:
Further, in the acute toxicity test, each of five ddy mice (5-week old, male, 20 g in weight), was intraveneously given a single dose of WS-1627A, B, C or D 20 mg (lg/kg) and all survived.

For series [6] the following is noted: background statement; cited from earlier work.
The mark [7] stands for this setting: intramuscularly 10 mg/kg body weight × 2 day, 1 pig.
Setting [8] is: orally 2.5 mg/kg body weight × 2 day, 2 pigs.
Setting [9] is: Treatment group I, 10 ppm in feed.
Setting [10] is: Treatment group II, 20 ppm in feed.
The mark [11] stands for this setting: Treatment group III, 40 ppm in feed.
[12] abbreviates: Treatment group II, 50 ppm in feed.

Molecules are shown by their SMILES. Where two headings read alike, the source gives them in different places.

As to `CC(=O)C1OC(Oc2ccc(C=C(C)C(=O)NC3C(O)C(O)C4OCOC4C3O)cc2O)C(O)C1O` (stereo not shown) [WS-1627B, hygromycin], the MIC in the series on Treponema hyodysenteriae (72 h) is < 0.8 µg/mL; with Treponema hyodysenteriae (ATCC31212, 72 h), < 0.8 µg/mL. For the same compound, the “antimicrobial activities against Treponema hyodysenteriae” value in the series with Treponema hyodysenteriae (statement in words) is given as “strong antimicrobial activities”. In addition, the “MIC (minimum inhibitory concentration)” value in the series with Treponema hyodysenteriae (strain S5709) and against Treponema hyodysenteriae (strain TH81013) was < 0.8 µg/mL throughout. Moreover, the cured/treated in series [1] (listed as WS1627B) is on record as 7/7. Further, the “(average) days of recovery to normal stool” value in series [2] (setting [7]) came to 1 days; in series [2] (setting [8]), 2 days. The “(average) days of disappearance of fecal T. h” value in series [2] (setting [7]) is reported as 1 days; in series [2] (setting [8]) it was 2 days. Also, the “Efficiency of feed utilization” value in series [3] (setting [9]) came out at 2.05; in series [3] (setting [10]), 2.11; in series [3] (setting [11]), 2.09; in series [4] (setting [9]), 2.00; in series [4] (setting [12]) it was 1.67. Further, the results for the “Average body weight gain at the 6th week after the feeding” value in series [3] (setting [9]), in series [3] (setting [10]) and in series [3] (setting [11]) were 19.6 kg, 19.2 kg and 18.9 kg, respectively. Besides, the “Average final body weight at the 6th week after the starting of the feeding” value in series [3] (setting [9]) came to 29.6 kg; in series [3] (setting [10]), 29.2 kg; in series [3] (setting [11]), 28.9 kg. Moreover, the “Average body weight gain at one week after the feeding” value in series [4] (setting [9]) is 116.5 g; in series [4] (setting [12]), 121 g. In addition, the entries for the “Average final body weight at one week after the feeding” value in series [4] (setting [9]) and in series [4] (setting [12]) were 204.5 g and 209 g, respectively. Also, in series [5], the survival entry is given as “all survived”. For the same compound, the toxic symptom entry in series [5] is “no toxic symptom was observed”. Further, the Solubility result was “Insoluble” in “Solubility” (acetone); “Insoluble” in the series “Solubility” (chloroform); “Insoluble” in the series “Solubility” (ethyl acetate); “Soluble” in the series “Solubility” (methanol); “Soluble” in the series “Solubility” (water).

`CC(=O)C1OC(Oc2ccc(C=C(C)C(=O)NC3C(O)C(O)C4OCOC4C3O)cc2O)C(O)C1O` (stereo not drawn) [WS-1627D, epi-hygromycin]: the cured/treated in series [1] (listed as WS1627D) was 4/7.

Turning to `COC(=O)N/N=C/c1c[n+]([O-])c2ccccc2[n+]1[O-]` [carbadox], in series [6], the mutagenicity entry is recorded as “strong mutagenic substance”.
